This data set in a line: Half life was evaluated. The format is ADME.

For orientation: half-life means the time needed for the level to fall by half in the phase considered. Turning to `O=C([C@@H]1C2CCC(CC2)N1C(=O)[C@@H]1C[C@@H]1c1ccccc1)N1CCCC1`, the half-life was 7 h.

Source of the values: ChEMBL document CHEMBL1129340, “New prolyl endopeptidase inhibitors: in vitro and in vivo activities of azabicyclo[2.2.2]octane, azabicyclo[2.2.1]heptane, and perhydroindole derivatives” (J Med Chem, 1996).
